Experimental findings from US11548900B2, “Oxazino-quinazoline and oxazino-quinoline type compound, preparation method and uses thereof” (BEIJING SCITECH-MQ PHARMACEUTICALS LIMITED, priority 2018, dated 2023) are described below.

The structures appear in SMILES notation.

In test [1] the target is HER2 kinase (Homo sapiens (Human), UniProt P04626). Kind of test: Inhibition of HER2 kinase activity (ULight-labeled PolyGT substrate). Format: biochemical. Conditions: HER2 kinase 10 nM, ATP 10 μM, 2 hours. The gist of the method: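 HER2 kinase at 10 nM with 10 μM ATP and 100 nM ULight-PolyGT, 5 min enzyme–compound preincubation, then 2 h reaction at room temperature in the dark. Compounds at 11 3-fold concentrations, 2.5 μM top to 0.042 nM, 1% DMSO, duplicates. TR-FRET 665/615 ratio; IC50 from inhibition versus DMSO and no-compound controls.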

The test system of test [2] is BT474 cells. Kind of test: Inhibition of cell proliferation, BT474 (CCK-8, 72 h). Format: cell-based. Conditions: Homo sapiens, BT-474, 72 h incubation. The gist of the method: (§1)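 BT474 and HCC827 seeded at 10,000 and 3000 cells/well respectively, cultured overnight, then exposed to 10-point 3-fold compound dilutions (top stock 10 mM; 0.25% DMSO final) for 72 h. Viability by CCK-8, OD450; survival normalised to untreated and cell-free blanks, IC50 from curve fit.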

For test [3], the target named is EGFR kinase (Homo sapiens (Human), UniProt P00533). As to the kind of experiment: Inhibition of EGFR kinase activity (ULight-labeled JAK-1 (Tyr1023) peptide substrate). Format: biochemical. The following applies: EGFR kinase 0.35 nM, ATP 150 μM, 2 hours. The gist of the method:
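TR-FRET kinase assay: 0.35 nM EGFR, 150 μM ATP, 100 nM substrate, 2 h at room temperature in the dark after 5 min enzyme-compound preincubation, 1% DMSO. Compounds tested as 11-point 3-fold series, 2.5 μM to 0.042 nM final, duplicate; IC50 from 665/615 nm ratio-based inhibition.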

The test system of test [4] is HCC827 cells. Kind of test: Inhibition of cell proliferation, HCC827 (CCK-8, 72 h). Format: cell-based. The following applies: Homo sapiens, 72 h incubation. The gist of the method: as §1

HER2 kinase, sequence (P04626 23-1255): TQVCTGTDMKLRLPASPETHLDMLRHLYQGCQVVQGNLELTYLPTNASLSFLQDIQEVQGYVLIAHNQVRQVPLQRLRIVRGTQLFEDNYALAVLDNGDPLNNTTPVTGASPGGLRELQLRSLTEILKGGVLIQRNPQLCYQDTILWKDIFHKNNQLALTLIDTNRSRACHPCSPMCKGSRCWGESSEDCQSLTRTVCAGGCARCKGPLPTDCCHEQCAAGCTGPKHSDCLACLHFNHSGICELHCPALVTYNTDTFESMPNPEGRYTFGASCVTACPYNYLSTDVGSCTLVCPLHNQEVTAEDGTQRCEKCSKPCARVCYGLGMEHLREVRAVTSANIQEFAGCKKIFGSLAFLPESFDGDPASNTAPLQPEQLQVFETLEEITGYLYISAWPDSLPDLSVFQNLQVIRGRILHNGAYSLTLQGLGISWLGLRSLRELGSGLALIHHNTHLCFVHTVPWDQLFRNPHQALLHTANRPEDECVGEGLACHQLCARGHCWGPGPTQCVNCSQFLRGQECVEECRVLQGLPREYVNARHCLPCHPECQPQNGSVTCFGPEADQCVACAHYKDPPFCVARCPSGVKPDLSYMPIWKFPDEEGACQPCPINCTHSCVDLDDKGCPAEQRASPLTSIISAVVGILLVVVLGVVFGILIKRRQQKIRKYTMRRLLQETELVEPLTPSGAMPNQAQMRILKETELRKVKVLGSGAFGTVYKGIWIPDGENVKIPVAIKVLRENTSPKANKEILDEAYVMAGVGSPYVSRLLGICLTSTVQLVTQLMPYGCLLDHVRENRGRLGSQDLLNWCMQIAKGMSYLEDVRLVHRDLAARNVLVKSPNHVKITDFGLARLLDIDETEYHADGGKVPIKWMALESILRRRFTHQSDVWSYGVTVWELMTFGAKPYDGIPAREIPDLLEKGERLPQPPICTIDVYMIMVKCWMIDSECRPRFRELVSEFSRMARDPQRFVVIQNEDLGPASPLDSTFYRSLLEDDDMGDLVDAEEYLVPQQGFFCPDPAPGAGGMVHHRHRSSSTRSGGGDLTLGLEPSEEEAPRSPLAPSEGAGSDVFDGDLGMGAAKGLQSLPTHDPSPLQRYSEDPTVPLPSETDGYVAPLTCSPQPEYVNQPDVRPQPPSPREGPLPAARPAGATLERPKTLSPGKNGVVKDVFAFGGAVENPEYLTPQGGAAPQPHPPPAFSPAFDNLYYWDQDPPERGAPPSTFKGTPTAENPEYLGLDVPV
EGFR kinase, sequence (P00533 25-1210): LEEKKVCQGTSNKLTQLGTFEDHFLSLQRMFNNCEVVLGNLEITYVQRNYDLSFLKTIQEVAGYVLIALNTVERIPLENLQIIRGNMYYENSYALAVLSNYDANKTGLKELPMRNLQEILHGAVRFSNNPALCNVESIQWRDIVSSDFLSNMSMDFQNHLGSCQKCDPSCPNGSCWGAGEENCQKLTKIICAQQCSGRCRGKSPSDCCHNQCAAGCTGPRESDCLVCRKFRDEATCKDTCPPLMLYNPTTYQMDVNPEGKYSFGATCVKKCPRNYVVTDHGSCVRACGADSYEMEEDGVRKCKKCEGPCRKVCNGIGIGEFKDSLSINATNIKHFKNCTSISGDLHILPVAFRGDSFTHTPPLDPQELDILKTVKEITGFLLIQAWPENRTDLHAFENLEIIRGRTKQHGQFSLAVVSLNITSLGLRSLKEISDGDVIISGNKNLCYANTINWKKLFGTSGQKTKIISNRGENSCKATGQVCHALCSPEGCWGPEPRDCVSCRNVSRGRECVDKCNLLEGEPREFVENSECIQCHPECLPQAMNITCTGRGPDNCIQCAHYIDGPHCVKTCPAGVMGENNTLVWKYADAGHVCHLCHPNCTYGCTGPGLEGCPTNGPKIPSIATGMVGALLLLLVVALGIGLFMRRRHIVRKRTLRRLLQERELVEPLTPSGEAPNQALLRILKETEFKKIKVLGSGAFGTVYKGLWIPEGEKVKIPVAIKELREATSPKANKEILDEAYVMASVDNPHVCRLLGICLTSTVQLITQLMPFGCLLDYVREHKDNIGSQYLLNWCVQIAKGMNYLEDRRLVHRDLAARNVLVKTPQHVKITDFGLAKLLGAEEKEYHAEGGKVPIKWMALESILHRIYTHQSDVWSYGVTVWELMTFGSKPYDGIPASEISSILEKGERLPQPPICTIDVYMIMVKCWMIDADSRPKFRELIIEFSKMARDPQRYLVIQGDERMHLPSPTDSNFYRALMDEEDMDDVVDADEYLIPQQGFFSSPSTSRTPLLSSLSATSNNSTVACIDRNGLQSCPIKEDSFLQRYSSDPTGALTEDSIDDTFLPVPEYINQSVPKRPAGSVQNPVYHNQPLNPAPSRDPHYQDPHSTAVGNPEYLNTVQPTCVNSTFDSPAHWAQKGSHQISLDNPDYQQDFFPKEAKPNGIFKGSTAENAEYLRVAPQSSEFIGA

What is called IC50 is the point on the concentration scale where inhibition reaches its midpoint. Higher therefore signals lower potency. Consider `CC(=O)N1CCN(C/C=C/C(=O)N2CCOc3c2ccc2ncnc(Nc4ccc(OCc5ccccn5)c(Cl)c4)c32)CC1` [Example 108, (E)-4-(4-acetylpiperazin-1-yl)-1-(10-((3-chloro-4-(pyridin-2-ylmethoxy)phenyl)amino)-2,3-dihydro-4H-[1,4]oxazino[2,3-f]quinazolin-4-yl)but-2-en-1-one], for which the IC50 was no more than 50 nM in test [1], no more than 50 nM in test [2], no more than 50 nM in test [3] and 50 to 500 nM in test [4].
As to `CN(C/C=C/C(=O)N1CCOc2c1ccc1ncnc(Nc3ccc(OCc4ccccn4)c(Cl)c3)c21)C1CCC1` [Example 110, (E)-1-(10-((3-chloro-4-(pyridin-2-ylmethoxy)phenyl)amino)-2,3-dihydro-4H-[1,4]oxazino[2,3-f]quinazolin-4-yl)-4-(cyclobutyl(methyl)amino)but-2-en-1-one], the IC50 in test [1] is no more than 50 nM; in test [2] it was no more than 50 nM; in test [3], no more than 50 nM; in test [4], 50 to 500 nM.
For `CC(C)N(C)C/C=C/C(=O)N1CCOc2c1ccc1ncnc(Nc3ccc(OCc4ccccn4)c(Cl)c3)c21` [Example 111, (E)-1-(10-((3-chloro-4-(pyridin-2-ylmethoxy)phenyl)amino)-2,3-dihydro-4H-[1,4]oxazino[2,3-f]quinazolin-4-yl)-4-(isopropyl(methyl)amino)but-2-en-1-one], the IC50 in test [1] was no more than 50 nM; in test [2], no more than 50 nM; in test [3], no more than 50 nM; in test [4] it was 500 to 5000 nM.
